The record followed here is patent US20230129438A1, “IMMUNOMODULATING IMINE-OXAZOLINE AZALIDES” (Zoetis Services LLC, priority 2020, published 2023).

Structures are written as SMILES. Entries after “also recorded” stand apart in the source; their conditions may differ. Read-outs that look alike come from different tables or passages of the source. Where only a bound is given, the exact number is not on record here.

In series [1] the test system is bovine respiratory disease (BRD). The experiment in a line: Natural bovine respiratory disease study. Type of series: in vivo, beef calves.
Procedure: The primary clinical endpoint for efficacy was treatment failure/success over a 14-day observation period. Clinically normal beef calves (150-200 kg) at moderate risk for BRD were dosed on arrival to the feedlot. Animals (N=114/group) received saline (T01), 5 mg/kg M9 (T02) or 10 mg/kg M9 (T03); or Zactran (T04). […] Bacterial isolates were collected at necropsy and MICs were evaluated (Table 4).
The target in another series is SLAMF9 (Bos taurus, UniProt E1BNF9). The experiment in a line: Surface plasmon resonance (SPR) drug/target binding, SLAMF9. The following applies: read-out: Interaction KD. The arrangement: species or system bovine. As for the experimental part: (§1) To further characterize the direct activity of the compounds of the invention, experiments to identify the drug's direct binding host partners(s) were performed with the aim of identifying the potential biological targets. Bovine primary cells (peripheral blood mononuclear cells [PBMCs] and polymorphonuclear cells [PMN/neutrophils]) and tissue (trachea, lung) protein homogenates were mixed with M9 and the macrolide, gamithromicin as a comparator. Tissue interactions were allowed to form using a heterogeneous assembly method (nematic protein organization technique, NPOT; Inoviem Scientific); and traditional western blots to identify native-structure proteins bound to the compound. Mass spectrometry analysis identified eight proteins involved in the interaction with M9 as compared to gamithromycin. The antibacterial macrolide gamithromycin was used as a comparator to differentiate specific binding to M9. These proteins were considered to be either direct binding partners of the drug or closely involved in the drug:target interaction (Table 6).
(§2) In order to add further clarity to binding partner identification, surface plasma resonance (SPR) technology was used. […]
(§3) KD is the equilibrium dissociation constant that was used to present the drug/target affinity. The identified targets associated with drug were measured by surface plasmon resonance (SPR) to define the KD.

Series [2] deals with M. haemolytica (strain: OSU-012103-BHI). The experiment in a line: Bovine M. haemolytica intratracheal lung challenge model. The format is in vivo.
A further series relates to P. multocida. The experiment in a line: Murine P. multocida intranasal challenge study with lung tissue RNA sequence analysis. The format is in vivo, mouse. The following applies: 32 mg/kg subcutaneous 18 hours after challenge (T03); placebo 0%. As for the experimental part: In one murine P. multocida intranasal challenge study, mice were administered tulathromycin (16 mg/kg; T02), M9 (32 mg/kg; T03), or ceftiofur (9 mg/kg; T04) by subcutaneous injection 18 hours after bacterial challenge (5×10^3 CFU/mouse) for lung tissue RNA sequence analysis. Survival at Day 7 was about 80%, 50%, and 90% for T02, T03, and T04, respectively, compared to placebo at 0%. Differential gene expression from total lung tissue RNA sequence analysis indicated at least 226 unique genes were up or down regulated (with significance) for T03. Output from ingenuity pathway analysis of these unique genes predicted major upstream regulators of the involved pathways. Data was analyzed based on the number of genes being modulated in the same direction that were associated with a given upstream regulator. An activation z-score of 2 or greater is considered significant and the direction change is indicated by + (activated) or − (inhibited). The top 5 pathways included: IL-9 signaling, glucocorticoid receptor signaling, prolactin signaling, JAK STAT signaling, and IL-17 signaling. The top 6 upstream regulators (activation z-score) included: lipopolysaccharide (−6.725), TNF (−4.669), IFNγ (−5.759), IL-1β (−5.947), STAT1 (−2.787), and poly rI:rC-RNA (−5.289). Even though this study was run in the murine model, the top upstream regulators identified as being modulated by M9 include an almost ubiquitous overlap with the pathways identified in the natural disease study as being key mediators in BRD, and therefore is modulating highly relevant pathways in BRD pathobiology.

For a further series, the target named is LPO (Bos taurus, UniProt P80025). The experiment in a line: Drug binding partner identification (NPOT/SPR), LPO. The arrangement: species or system bovine. To be noted: tissue Trachea, PBMCs, PMNs. As for the experimental part: as §1, §2, §3
In a further series the target is T1, LCN2 (Bos taurus, UniProt A0AAA9TIZ6).
T1 sequence (A0AAA9TIZ6 24-200): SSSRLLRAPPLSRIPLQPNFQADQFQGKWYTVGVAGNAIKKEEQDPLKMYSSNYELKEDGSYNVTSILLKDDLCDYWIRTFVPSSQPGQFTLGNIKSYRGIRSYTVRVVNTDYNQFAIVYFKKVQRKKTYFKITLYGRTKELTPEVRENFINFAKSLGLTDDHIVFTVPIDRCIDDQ
The experiment in a line: Surface plasmon resonance (SPR) drug/target binding, LCN2. To be noted: read-out: Interaction KD. Also on record: species or system bovine. On the procedure: as §1, §2, §3

Series [3] in a line: Separate PK study, plasma concentration. To be noted: following a 10 mg/kg dose.
Another series concerns the target NLRX1 (Bos taurus, UniProt A7MB19). Put plainly: Drug binding partner identification (NPOT/SPR), NLRX1. Also on record: species or system bovine. To be noted: tissue PBMCs. On the procedure:
as §1, §2, §3

A further series has as its target T2, TLR4 (Bos taurus, UniProt Q9GL65).
T2 sequence (Q9GL65 24-841): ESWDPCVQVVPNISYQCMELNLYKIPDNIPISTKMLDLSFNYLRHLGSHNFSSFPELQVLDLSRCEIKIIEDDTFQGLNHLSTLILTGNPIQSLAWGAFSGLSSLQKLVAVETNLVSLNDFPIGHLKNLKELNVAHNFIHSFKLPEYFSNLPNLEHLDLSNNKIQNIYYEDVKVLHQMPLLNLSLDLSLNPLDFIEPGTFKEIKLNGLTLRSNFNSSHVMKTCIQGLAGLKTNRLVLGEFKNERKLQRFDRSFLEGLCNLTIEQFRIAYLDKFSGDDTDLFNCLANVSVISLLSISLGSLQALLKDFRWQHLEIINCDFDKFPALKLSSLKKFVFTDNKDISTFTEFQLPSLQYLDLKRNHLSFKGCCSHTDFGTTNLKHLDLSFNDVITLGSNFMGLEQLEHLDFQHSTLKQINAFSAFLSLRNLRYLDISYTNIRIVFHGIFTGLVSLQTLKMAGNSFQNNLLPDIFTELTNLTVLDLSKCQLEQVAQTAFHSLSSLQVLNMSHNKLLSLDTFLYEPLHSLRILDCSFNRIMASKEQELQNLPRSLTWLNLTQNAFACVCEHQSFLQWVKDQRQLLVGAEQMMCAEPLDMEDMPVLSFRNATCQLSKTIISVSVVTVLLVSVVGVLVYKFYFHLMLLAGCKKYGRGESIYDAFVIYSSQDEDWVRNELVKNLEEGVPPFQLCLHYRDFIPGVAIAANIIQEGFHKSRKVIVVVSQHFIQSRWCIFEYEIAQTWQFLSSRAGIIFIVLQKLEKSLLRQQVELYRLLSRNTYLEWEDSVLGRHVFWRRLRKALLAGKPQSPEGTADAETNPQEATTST
The experiment in a line: Drug binding partner identification (NPOT/SPR), TLR4. Also on record: species or system bovine. To be noted: tissue PBMCs, Trachea. On the procedure: as §1, §2, §3

For a further series, the system named is IL-1β. The experiment in a line: Bovine whole blood assay, IL-1β. The format is cell-based. The following applies: drug concentration giving overstimulation of IL-1β over LPS (cellular toxicity signal). On the procedure: (protected from light) for 30 minutes.
The subject of a further series is P. multocida 46572. Put plainly: In vivo mouse lung infection challenge model (murine efficacy model). The following applies: P. multocida infection in mice.
A short description of series [4]: Separate study of M9 versus saline control (lung lesions, mortality). Type of series: in vivo. The following applies: 10 mg/kg.

SLAMF9, sequence (E1BNF9 1-289): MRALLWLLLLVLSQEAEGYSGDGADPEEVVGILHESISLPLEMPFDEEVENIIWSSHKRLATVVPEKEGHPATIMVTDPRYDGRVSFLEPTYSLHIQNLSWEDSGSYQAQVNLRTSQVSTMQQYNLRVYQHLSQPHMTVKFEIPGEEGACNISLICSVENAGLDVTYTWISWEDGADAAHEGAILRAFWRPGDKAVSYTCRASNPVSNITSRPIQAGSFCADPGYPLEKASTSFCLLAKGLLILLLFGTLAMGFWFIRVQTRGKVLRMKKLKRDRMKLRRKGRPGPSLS
NLRX1, sequence (A7MB19 1-973): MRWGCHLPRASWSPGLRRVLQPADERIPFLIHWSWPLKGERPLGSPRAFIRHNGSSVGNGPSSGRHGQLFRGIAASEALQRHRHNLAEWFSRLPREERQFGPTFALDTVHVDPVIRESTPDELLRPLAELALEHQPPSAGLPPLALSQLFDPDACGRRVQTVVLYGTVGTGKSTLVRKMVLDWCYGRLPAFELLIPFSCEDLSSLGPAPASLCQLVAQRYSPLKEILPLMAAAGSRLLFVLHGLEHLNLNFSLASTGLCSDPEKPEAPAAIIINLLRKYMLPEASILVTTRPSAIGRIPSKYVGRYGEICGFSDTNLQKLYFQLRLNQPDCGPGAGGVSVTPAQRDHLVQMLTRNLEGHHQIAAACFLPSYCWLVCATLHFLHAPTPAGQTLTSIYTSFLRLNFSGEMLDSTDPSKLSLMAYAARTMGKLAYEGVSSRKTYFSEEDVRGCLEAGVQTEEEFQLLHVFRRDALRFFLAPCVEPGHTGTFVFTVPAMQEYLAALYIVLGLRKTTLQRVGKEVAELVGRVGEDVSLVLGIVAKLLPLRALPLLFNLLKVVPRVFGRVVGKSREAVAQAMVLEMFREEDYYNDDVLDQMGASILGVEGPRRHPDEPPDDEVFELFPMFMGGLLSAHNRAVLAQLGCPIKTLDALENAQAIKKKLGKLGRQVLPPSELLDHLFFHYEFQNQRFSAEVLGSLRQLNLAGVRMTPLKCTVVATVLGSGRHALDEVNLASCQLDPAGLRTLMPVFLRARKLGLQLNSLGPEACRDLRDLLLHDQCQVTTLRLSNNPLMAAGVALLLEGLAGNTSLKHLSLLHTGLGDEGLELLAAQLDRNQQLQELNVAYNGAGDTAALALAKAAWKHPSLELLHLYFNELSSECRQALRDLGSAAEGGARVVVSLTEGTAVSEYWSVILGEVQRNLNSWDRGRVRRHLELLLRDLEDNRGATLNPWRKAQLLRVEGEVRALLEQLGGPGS

As usually defined, the Kd is the equilibrium constant for the complex coming apart. Turning to `CCCNC[C@]1(O)[C@H](C)O[C@@H](O[C@H]2[C@H](C)[C@@H](O[C@@H]3O[C@H](C)C[C@H](NC)[C@H]3O)[C@](C)(O)C[C@@H](C)CN[C@H](C)[C@@H](O)[C@](C)(O)[C@@H](CC)OC(=O)[C@@H]2C)C[C@@]1(C)OC` [Example M9, (2R,3S,4R,5R,8R,10R,11R,12S,13S,14R)-2-ethyl-3,4,10-trihydroxy-13-(((2R,4R,5S,6S)-5-hydroxy-4-methoxy-4,6-dimethyl-5-((propylamino)methyl)-tetrahydro-2H-pyran-2-yl)oxy)-11-(((2S,3R,4S,6R)-3-hydroxy-6-methyl-4-(methylamino)tetrahydro-2H-pyran-2-yl)oxy)-3,5,8,10,12,14-hexamethyl-1-oxa-6-azacyclopentadecan-15-one], the “Percent failure (treatment failure)” value in [1] (10 mg/kg (T03), dosed on arrival, 14-day observation, saline 43%) was found to be 8.8%. For the same compound, in series [1] (reduction of lung lesions and treatment failure), the “efficacy versus untreated control groups, in words” value is listed as “statistical superiority”. For the same compound, the equilibrium dissociation constant (Kd) stood at 6.33 mM on SLAMF9 (pH 5.5, SPR); 2.15 mM at SLAMF9 (pH 6.5, SPR); 0.435 mM at LCN2 (pH 5.5, SPR); 4.21 mM at LCN2 (pH 6.5, SPR). In addition, the Mortality was 1/6 in [2] (T02: 10 mg/kg subcutaneous Day −1, M. haemolytica challenge Day 0, saline 4/6) and 13% in series [4] (saline control 38.9%, p=0.025). In addition, the “IL-6 levels, in words” value in [2] (bovine M. haemolytica challenge, blood biomarker) is “significantly reduced”. Also, the “CD163 expression, in words” value in series [2] (cattle, monocytes/macrophages in whole blood, flow cytometry) was “suppressed; also recorded: mitigates the pathologic increase”. Moreover, the “Survival at Day 7” value in the series with P. multocida is around 50%. For the same compound, the Interaction result on LPO, at NLRX1 and at TLR4 was “Indirect” throughout. For the same compound, the maximum plasma concentration in series [3] stood at 5 µg/mL. For the same compound, the “IL-Iβ OS of LPS” value in the series on IL-1β was above 500 µM. The “clinical efficacy, in words” value with P. multocida 46572 is “clinically efficacious”. Further, the lung lesions in series [4] (saline control 31%, p=0.023) was determined as 20%.
